Data published in patent US7563621B2, “Absorbing organic reagents into diagnostic test devices by formation of amine salt complexes” (Siemens Healhcare Diagnostics Inc, priority 2003, dated 2009).
Where “and” joins values, the source holds several entries; their conditions need not be identical. Identical values can stand only once. Counter-ions that a name gives are not always drawn.

Columns and labels:
Tamm-Horsfall [1] = target: T1, Tamm-Horsfall (Homo sapiens, UniProt P07911); experiment: Automated protein assay with pyrogallol red salts, 74 μM (Example 6); details: Series #1 and #2
Protocol: (§1) The dilutor was programmed for reactions of 180 μL reagent+40 μL sample. […] The samples were phosphate buffered saline (blank), human serum albumin (HSA) 25 mg/dL, and other proteins (i.e., human IgG, […], and Lambda Light Chain) at 25 mg/dL. Absorbance data were collected on a Biotek, Powerwave X Microplate Absorbance reader using BioTek “KC Jr” software to determine the relative detection of the different proteins (i.e., HSA, human IgG, […], and Lambda Light Chain) using salts of pyrogallol red. Two sets of replicates of the different proteins were run. […] The protein response was determined by subtracting the phosphate buffered saline sample reaction result from the protein reaction result. […] The results for protein equivalence of the non-albumin proteins were expressed as a percentage of the protein colorimetric response to HSA as shown in Table 11 below.

human IgG [2] = experiment: as above; details: Series #1 and #2
Protocol: as §1

Lambda Light Chain [3] = experiment: as above; details: Series #1 and #2; for Percent Detection as Percentage of HSA Detection: Lambda Light Chain
Protocol: as §1

[4] = Butanol/water partitioning of pyrogallol red dye salts (Example 3); assay type: physicochemical; details: 276 nm; for Absorbance of Dye Salt in Butanol: butanol layer; for Absorbance of Dye Salt in Water: water layer
Protocol: Extractions were then performed in Mixxor extractors.

Tamm-Horsfall [5] = target: T1, Tamm-Horsfall; experiment: Automated protein assay with pyrogallol red salts, 54 μM (Example 5); details: 10 minutes; for 600 nm Absorbance Level, salt with Protein / 900 nm Absorbance Background Level, salt with Protein / Reaction Absorbance at 600 nm − Absorbance at 900 nm (net protein response, protein minus non-protein sample): Tamm-Horsfall 25 mg/dL; for 600 nm Absorbance Level, salt with Protein / 900 nm Absorbance Background Level, salt with Protein / 600 nm Absorbance Level, salt in Phosphate Buffered Saline (No Protein) / 900 nm Absorbance Background Level, salt in Phosphate Buffered Saline (No Protein): 37° C, replicates #1 and #2; for Reaction Absorbance at 600 nm − Absorbance at 900 nm (net protein response, protein minus non-protein sample): averaged data; for 600 nm Absorbance Level, salt in Phosphate Buffered Saline (No Protein) / 900 nm Absorbance Background Level, salt in Phosphate Buffered Saline (No Protein): Tamm-Horsfall
Protocol: (§2) The dilutor was programmed for reactions of 180 μL reagent+40 μL sample. […] The samples were phosphate buffered saline (blank), human serum albumin (HSA) 25 mg/dL, and other proteins (i.e., human IgG, […], and Lambda Light Chain) at 25 mg/dL. Absorbance rate data were collected on a Biotek, Powerwave X Microplate Absorbance reader using BioTek “KC Jr” software to determine the relative detection of the different proteins (i.e., HSA, human IgG, […], and Lambda Light Chain) using salts of pyrogallol red. Two sets of replicates of the different proteins were run. […] The protein response was determined by subtracting the phosphate buffered saline sample reaction result from the protein reaction result.

human IgG [6] = experiment: as above; details: IgG 25 mg/dL, 10 minutes, averaged data
Protocol: as §2

Lambda Light Chain [7] = experiment: as above; details: Lambda Light Chain 25 mg/dL, 10 minutes, averaged data
Protocol: as §2

[8] = target: T2, human serum albumin (HSA) (Homo sapiens, UniProt P02768); experiment: as above; details: 10 minutes; for 600 nm Absorbance Level, salt with Protein / 900 nm Absorbance Background Level, salt with Protein / Reaction Absorbance at 600 nm − Absorbance at 900 nm (net protein response, protein minus non-protein sample): HSA 25 mg/dL; for 600 nm Absorbance Level, salt with Protein / 900 nm Absorbance Background Level, salt with Protein / 600 nm Absorbance Level, salt in Phosphate Buffered Saline (No Protein) / 900 nm Absorbance Background Level, salt in Phosphate Buffered Saline (No Protein): 37° C, replicates #1 and #2; for Reaction Absorbance at 600 nm − Absorbance at 900 nm (net protein response, protein minus non-protein sample): averaged data; for 600 nm Absorbance Level, salt in Phosphate Buffered Saline (No Protein) / 900 nm Absorbance Background Level, salt in Phosphate Buffered Saline (No Protein): HSA
Protocol: as §2

[9] = target: T2, human serum albumin (HSA); experiment: Automated protein assay with pyrogallol red salts, 74 μM (Example 6); details: HSA 25 mg/dL; 10 minutes, 37° C; 900 nm baseline subtracted; Series #1 and #2
Protocol: The dilutor was programmed for reactions of 180 μL reagent+40 μL sample. […] The samples were phosphate buffered saline (blank), human serum albumin (HSA) 25 mg/dL, and other proteins (i.e., human IgG, […], and Lambda Light Chain) at 25 mg/dL. Absorbance data were collected on a Biotek, Powerwave X Microplate Absorbance reader using BioTek “KC Jr” software to determine the relative detection of the different proteins (i.e., HSA, human IgG, […], and Lambda Light Chain) using salts of pyrogallol red. Two sets of replicates of the different proteins were run. […] The protein response was determined by subtracting the phosphate buffered saline sample reaction result from the protein reaction result.

T2 sequence (P02768 25-609): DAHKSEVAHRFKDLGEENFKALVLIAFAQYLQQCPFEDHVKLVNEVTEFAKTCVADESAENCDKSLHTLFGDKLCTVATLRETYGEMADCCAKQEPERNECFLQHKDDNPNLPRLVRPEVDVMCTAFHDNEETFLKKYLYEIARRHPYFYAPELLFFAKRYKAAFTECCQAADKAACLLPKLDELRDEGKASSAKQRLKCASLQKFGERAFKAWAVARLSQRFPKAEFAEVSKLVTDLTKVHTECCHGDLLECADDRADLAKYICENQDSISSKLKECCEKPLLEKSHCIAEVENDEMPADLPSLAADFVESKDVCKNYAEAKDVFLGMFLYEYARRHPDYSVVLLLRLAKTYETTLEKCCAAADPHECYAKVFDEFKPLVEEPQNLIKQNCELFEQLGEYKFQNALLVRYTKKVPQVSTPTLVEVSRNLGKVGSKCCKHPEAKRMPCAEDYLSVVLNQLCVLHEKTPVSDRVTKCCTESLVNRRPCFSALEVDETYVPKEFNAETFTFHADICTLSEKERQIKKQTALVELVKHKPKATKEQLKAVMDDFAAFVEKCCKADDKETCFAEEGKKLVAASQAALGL

In the case of `O=c1ccc2c(-c3ccccc3S(=O)(=O)O)c3ccc(O)c(O)c3oc-2c1O` [Sodium Pyrogallol Red Salt, pyrogallol red, reference compound], the “average net absorbance at 600 nm after subtracting PBS sample reaction result” value (“average net absorbance at 600 nm” for short) (Tamm-Horsfall [1]; Tamm-Horsfall 25 mg/dL, 10 minutes, 37° C, 900 nm baseline subtracted) is reported as 0.0141 and 0.0118, the “Percent Detection as Percentage of HSA Detection” value (“Percent Detection as Percentage” for short) (Tamm-Horsfall [1]; Tamm-Horsfall) is reported as 26% and 21% and the “average net absorbance at 600 nm” value (human IgG [2]; IgG 25 mg/dL, 10 minutes, 37° C, 900 nm baseline subtracted) is reported as 0.0311 and 0.0318. For the same compound, the “Percent Detection as Percentage” value (human IgG [2]; IgG) was 58% and 56%, the “average net absorbance at 600 nm” value (Lambda Light Chain [3]; Lambda Light Chain 25 mg/dL, 10 minutes, 37° C, 900 nm baseline subtracted) was 0.0041 and 0.0037 and the “Percent Detection as Percentage” value (Lambda Light Chain [3]) was 8% and 7%. For the same compound, the “Percent Detection as Percentage” value (Lambda Light Chain [3]; listed as sodium) was 8%, the “Ratio of Butanol Absorbance to Water Absorbance” value ([4]; Sodium Hydroxide) was 0.10 and the “Absorbance of Dye Salt in Butanol” value ([4]; Sodium Hydroxide) was 0.034. For the same compound, the “Absorbance of Dye Salt in Water” value ([4]; Sodium Hydroxide) was 0.338, the “600 nm Absorbance Level, salt with Protein” value (Tamm-Horsfall [5]) was 0.203 and 0.204 and the “900 nm Absorbance Background Level, salt with Protein” value (Tamm-Horsfall [5]) was 0.036. The “Reaction Absorbance at 600 nm − Absorbance at 900 nm (net protein response, protein minus non-protein sample)” value (Tamm-Horsfall [5]; listed as Sodium Salt) was 0.007, the “600 nm Absorbance Level, salt in Phosphate Buffered Saline (No Protein)” value (“600 nm Absorbance Level, salt … (No Protein)” below) (Tamm-Horsfall [5]) was 0.196 and 0.198 and the “900 nm Absorbance Background Level, salt in Phosphate Buffered Saline (No Protein)” value (Tamm-Horsfall [5]) was 0.036 and 0.035. For the same compound, the “Reaction Absorbance at 600 nm − Absorbance at 900 nm (net protein response, protein minus non-protein sample)” value (human IgG [6]; listed as Sodium Salt) was 0.008, the “Reaction Absorbance at 600 nm − Absorbance at 900 nm (net protein response, protein minus non-protein sample)” value (Lambda Light Chain [7]; listed as Sodium Salt) was 0.006 and the “600 nm Absorbance Level, salt with Protein” value [8] was 0.211. For the same compound, the “900 nm Absorbance Background Level, salt with Protein” value [8] was 0.035, the “Reaction Absorbance at 600 nm − Absorbance at 900 nm (net protein response, protein minus non-protein sample)” value ([8]; listed as Sodium Salt) was 0.015 and the “600 nm Absorbance Level, salt … (No Protein)” value [8] was 0.197 and 0.196. For the same compound, the “900 nm Absorbance Background Level, salt in Phosphate Buffered Saline (No Protein)” value [8] was 0.035 and the “average net absorbance at 600 nm” value [9] was 0.0563 and 0.0536.

For `O=c1ccc2c(-c3ccccc3S(=O)(=O)O)c3ccc(O)c(O)c3oc-2c1O` [Trioctylamine Pyrogallol Red Salt, pyrogallol red], the “Ratio of Butanol Absorbance to Water Absorbance” value ([4]; Trioctylamine) was 3.17, the “Absorbance of Dye Salt in Butanol” value ([4]; Trioctylamine) was 0.155 and the “Absorbance of Dye Salt in Water” value ([4]; Trioctylamine) was 0.049. The “600 nm Absorbance Level, salt with Protein” value (Tamm-Horsfall [5]) was 0.454 and 0.45, the “900 nm Absorbance Background Level, salt with Protein” value (Tamm-Horsfall [5]) was 0.085 and 0.084 and the “Reaction Absorbance at 600 nm − Absorbance at 900 nm (net protein response, protein minus non-protein sample)” value (Tamm-Horsfall [5]; listed as Trioctylamine Salt) was −0.034. The “600 nm Absorbance Level, salt … (No Protein)” value (Tamm-Horsfall [5]) was 0.485 and 0.486, the “900 nm Absorbance Background Level, salt in Phosphate Buffered Saline (No Protein)” value (Tamm-Horsfall [5]) was 0.081 and 0.082 and the “Reaction Absorbance at 600 nm − Absorbance at 900 nm (net protein response, protein minus non-protein sample)” value (human IgG [6]; listed as Trioctylamine Salt) was −0.011. For the same compound, the “Reaction Absorbance at 600 nm − Absorbance at 900 nm (net protein response, protein minus non-protein sample)” value (Lambda Light Chain [7]; listed as Trioctylamine Salt) was −0.042, the “600 nm Absorbance Level, salt with Protein” value [8] was 0.454 and 0.464 and the “900 nm Absorbance Background Level, salt with Protein” value [8] was 0.087 and 0.088. The “Reaction Absorbance at 600 nm − Absorbance at 900 nm (net protein response, protein minus non-protein sample)” value ([8]; listed as Trioctylamine Salt) was −0.021, the “600 nm Absorbance Level, salt … (No Protein)” value [8] was 0.476 and 0.483 and the “900 nm Absorbance Background Level, salt in Phosphate Buffered Saline (No Protein)” value [8] was 0.082 and 0.081.
